Columns and labels:
Type in all cases: functional, organism-based
Plasmodium falciparum [1] = assay: Antimalarial activity against multidrug-resistant Plasmodium falciparum TM91C235 after 24 hrs by [3H]hypoxanthine uptake
Plasmodium falciparum [2] = assay: Antimalarial activity against Plasmodium falciparum D6 after 24 hrs by [3H]hypoxanthine uptake
Plasmodium falciparum [3] = assay: Antimalarial activity against Plasmodium falciparum W2 after 24 hrs by [3H]hypoxanthine uptake

OC(c1cc(C(F)(F)F)nc2c(C(F)(F)F)cccc12)C1CCCCN1 (centres undefined) [MEFLOQUINE]
IC50 (Plasmodium falciparum [1]): 0.059 µM

C[C@]12CC[C@]3(C1)[C@H](CC2=O)C[C@@H](OC(=O)c1ccccc1)[C@H]1[C@@](CO)(C(=O)O)CCC[C@@]13C [SCOPADULCIC ACID A]
IC50 (Plasmodium falciparum [1]): 23 µM
IC50 (Plasmodium falciparum [2]): 27 µM
IC50 (Plasmodium falciparum [3]): 19 µM

From ChEMBL document CHEMBL1148131, “Efficacy of scopadulcic acid A against Plasmodium falciparum in vitro” (J Nat Prod, 2002)
